The text below walks through data of patent US11485742B2, “2-azaspiro[3.4]octane derivatives as M4 agonists” (NOVARTIS AG, priority 2019, dated 2022).

Assay [1] has as its target T1, human cloned CHRM4 receptor (Homo sapiens, UniProt P08173).
T1 construct: expressed in transfected cells; host or cells: CHO-K1 (M4_CHO)
T1 sequence (P08173 1-479): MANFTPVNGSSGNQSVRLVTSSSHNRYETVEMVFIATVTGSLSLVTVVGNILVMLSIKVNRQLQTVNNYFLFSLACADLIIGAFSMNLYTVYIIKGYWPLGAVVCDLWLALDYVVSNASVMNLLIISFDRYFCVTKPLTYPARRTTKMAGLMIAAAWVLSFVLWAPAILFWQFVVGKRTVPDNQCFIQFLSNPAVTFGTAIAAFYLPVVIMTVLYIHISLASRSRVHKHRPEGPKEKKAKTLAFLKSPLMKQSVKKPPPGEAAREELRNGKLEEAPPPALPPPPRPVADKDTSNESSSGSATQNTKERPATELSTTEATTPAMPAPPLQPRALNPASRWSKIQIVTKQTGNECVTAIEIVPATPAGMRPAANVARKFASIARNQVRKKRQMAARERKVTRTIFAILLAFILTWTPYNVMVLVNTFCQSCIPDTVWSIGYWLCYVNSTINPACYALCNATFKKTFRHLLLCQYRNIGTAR
The assay can be described thus: CHRM4 Ca++ Flux Assay (M4_CHO cells, agonist mode). Particulars: for M4 FDSS PA % / Emax: Percent Activity (PA); for EC50: geometric mean if tested more than once, read-out: M4 FDSS EC50; for Emax: read-out: M4 FDSS PA %. The format is cell-based. Summed up: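 CHO-K1 cells stably expressing human M4 were dye-loaded, then held 60 min at RT in Ca/Mg-free HBSS buffer with 20 μM ATP. Ca++ traces were recorded over 3 min after an 11-point compound series in triplicate, agonist mode, with a four-parameter fit. Percent activity is relative to the carbachol EC100; repeat tests are geometric means.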

Assay [2] concerns the target T2, human cloned CHRM2 receptor (Homo sapiens, UniProt P08172).
T2 construct: expressed in transfected cells; host or cells: CHO-K1 (M2_CHO)
T2 sequence (P08172 1-466): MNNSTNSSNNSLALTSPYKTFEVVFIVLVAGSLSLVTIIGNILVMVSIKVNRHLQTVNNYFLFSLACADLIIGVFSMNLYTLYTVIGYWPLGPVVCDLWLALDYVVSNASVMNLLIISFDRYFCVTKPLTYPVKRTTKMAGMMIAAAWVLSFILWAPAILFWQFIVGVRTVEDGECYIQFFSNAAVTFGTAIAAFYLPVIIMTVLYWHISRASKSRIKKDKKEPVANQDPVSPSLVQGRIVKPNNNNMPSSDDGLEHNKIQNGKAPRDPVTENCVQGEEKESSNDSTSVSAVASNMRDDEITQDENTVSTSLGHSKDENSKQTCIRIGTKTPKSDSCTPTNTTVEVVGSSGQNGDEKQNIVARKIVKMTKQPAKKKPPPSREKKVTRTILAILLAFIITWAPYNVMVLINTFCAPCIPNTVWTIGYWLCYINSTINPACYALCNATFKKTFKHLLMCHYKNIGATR
Kind of assay: CHRM2 Ca++ Flux Assay (M2_CHO cells, agonist mode). Particulars: M2 CHO cells; for EC50: agonist mode, geometric mean if tested more than once, read-out: M2 FDSS EC50; for M2 FDSS PA % / Emax: Percent Activity (PA) measured to EC100 of Carbachol; for Emax: read-out: M2 FDSS PA %. The format is cell-based. In a few lines: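 CHO-K1 cells stably expressing human CHRM2 were plated overnight at 12K cells/well and loaded with Ca++ dye for 1–2 h. They were then held 60 minutes in HBSS −Ca/−Mg, 20 mM HEPES, 2.5 mM probenecid, 20 μM ATP. Agonist-mode Ca++ flux was read over 3 minutes. Four-parameter fits of triplicates gave percent activity relative to carbachol EC100.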

What is called EC50 is the midpoint of the concentration-response curve.

Each structure is given as a SMILES string. Where only a bound is given, the exact number is not on record here.

On to `OC[C@H]1C[C@H](Oc2ccc(F)cc2C2CCN([C@@H]3COC4(C3)CN(c3nnco3)C4)CC2)C1` (single isomer, unassigned) [Example 2II, ((1S,3r)-3-(2-(1-((S)-2-(1,3,4-oxadiazol-2-yl)-5-oxa-2-azaspiro[3.4]octan-7-yl)piperidin-4-yl)-4-fluorophenoxy)cyclobutyl)methanol or ((1R,3s)-3-(2-(1-((S)-2-(1,3,4-oxadiazol-2-yl)-5-oxa-2-azaspiro[3.4]octan-7-yl)piperidin-4-yl)-4-fluorophenoxy)cyclobutyl)methanol], for which, in assay [1], the “M4 FDSS PA %” value worked out at 81% and the EC50 turned out to be 0.124 µM. Also, in assay [2], the EC50 was 4.29 µM and the “M2 FDSS PA %” value was determined as 23%.

Regarding `CC(C)(O)COc1ccc(F)cc1C1CCN([C@@H]2COC3(C2)CN(c2ncns2)C3)CC1` [Example 5C, (S)-1-(2-(1-(2-(1,2,4-thiadiazol-5-yl)-5-oxa-2-azaspiro[3.4]octan-7-yl)piperidin-4-yl)-4-fluorophenoxy)-2-methylpropan-2-ol], in assay [1], the Emax turned out to be 66% and the EC50 was 0.11 µM. Besides, in assay [2], the EC50 was more than 25 µM and the Emax was determined as 0%.

Consider `Fc1ccc(OC2CCOCC2)c(C2CCN([C@@H]3COC4(C3)CN(c3nncs3)C4)CC2)c1` [Example 5J, (S)-7-(4-(5-fluoro-2-((tetrahydro-2H-pyran-4-yl)oxy)phenyl)piperidin-1-yl)-2-(1,3,4-thiadiazol-2-yl)-5-oxa-2-azaspiro[3.4]octane], for which, in assay [1], the Emax was 92% and the EC50 amounted to 0.029 µM. In addition, in assay [2], the EC50 worked out at 4.75 µM and the Emax was determined as 46%.

As for `COCCOc1ccc(F)cc1C1CCN([C@@H]2COC3(C2)CN(c2ncco2)C3)CC1` [Example 4L, (S)-7-(4-(5-fluoro-2-(2-methoxyethoxy)phenyl)piperidin-1-yl)-2-(oxazol-2-yl)-5-oxa-2-azaspiro[3.4]octane], in assay [1], the Emax was determined as 52% and the EC50 worked out at 0.027 µM. Besides, in assay [2], the EC50 was more than 25 µM and the Emax stood at 0%.

Regarding `Fc1cc(OC2COC2)c(C2CCN([C@@H]3COC4(C3)CN(c3ncco3)C4)CC2)cc1F` [Example 4Q, (S)-7-(4-(4,5-difluoro-2-(oxetan-3-yloxy)phenyl)piperidin-1-yl)-2-(oxazol-2-yl)-5-oxa-2-azaspiro[3.4]octane], the Emax in assay [1] amounted to 60%; in assay [2], 13%. Also, the concentration for a half-maximal effect (EC50) in assay [1] worked out at 0.011 µM; in assay [2] it was 1.88 µM.

On to `Fc1ccc(OC[C@H]2COCCO2)c(C2CCN([C@@H]3COC4(C3)CN(c3ncco3)C4)CC2)c1` [Example 4B, (S)-7-(4-(2-(((R)-1,4-dioxan-2-yl)methoxy)-5-fluorophenyl)piperidin-1-yl)-2-(oxazol-2-yl)-5-oxa-2-azaspiro[3.4]octane], for which, in assay [1], the Emax was 77% and the EC50 is 0.004 µM. In assay [2], the EC50 is more than 25 µM and the Emax was determined as 32%.

Consider `O[C@H]1CC[C@@H](c2ccc(F)cc2C2CCN([C@@H]3COC4(C3)CN(c3nnco3)C4)CC2)CC1` (single isomer, unassigned) [Example 3I, (1R,4s)-4-(2-(1-((S)-2-(1,3,4-oxadiazol-2-yl)-5-oxa-2-azaspiro[3.4]octan-7-yl)piperidin-4-yl)-4-fluorophenyl)cyclohexan-1-ol or (1S,4r)-4-(2-(1-((S)-2-(1,3,4-oxadiazol-2-yl)-5-oxa-2-azaspiro[3.4]octan-7-yl)piperidin-4-yl)-4-fluorophenyl)cyclohexan-1-ol], for which, in assay [1], the “M4 FDSS PA %” value is given as 91.2% and the EC50 was 0.038 µM. Besides, in assay [2], the EC50 stood at 3.86 µM and the “M2 FDSS PA %” value is on record as 32%.

Regarding `CC(C)(O)COc1ccc(F)cc1C1CCN([C@@H]2COC3(C2)CN(c2ncco2)C3)CC1` [Example 4K, (S)-1-(4-fluoro-2-(1-(2-(oxazol-2-yl)-5-oxa-2-azaspiro[3.4]octan-7-yl)piperidin-4-yl)phenoxy)-2-methylpropan-2-ol], in assay [1], the Emax was found to be 66% and the concentration giving a half-maximal response (EC50) is 0.025 µM. In assay [2], the half-maximal effective concentration (EC50) is more than 25 µM and the Emax worked out at 0%.

For the compound `Fc1ccc(OC[C@@H]2COCCO2)c(C2CCN([C@@H]3COC4(C3)CN(c3nnco3)C4)CC2)c1` [Example 1F, (S)-7-(4-(2-(((S)-1,4-dioxan-2-yl)methoxy)-5-fluorophenyl)piperidin-1-yl)-2-(1,3,4-oxadiazol-2-yl)-5-oxa-2-azaspiro[3.4]octane], in assay [1], the Emax worked out at 78% and the EC50 was 0.03 µM. For the same compound, in assay [2], the EC50 came to 0.39 µM and the Emax was found to be 31%.

`COc1ccccc1C1CCN([C@@H]2COC3(C2)CN(c2nncs2)C3)CC1` [Example 5R, (S)-7-(4-(2-methoxyphenyl)piperidin-1-yl)-2-(1,3,4-thiadiazol-2-yl)-5-oxa-2-azaspiro[3.4]octane]: in assay [1], the Emax turned out to be 73% and the EC50 stood at 0.096 µM. In assay [2], the EC50 is 1.24 µM and the Emax was found to be 18%.

In the case of `c1ccc(C2CCN([C@@H]3COC4(C3)CN(c3nnco3)C4)CC2)c(C2CCOCC2)c1` [Example 3C, (S)-2-(1,3,4-oxadiazol-2-yl)-7-(4-(2-(tetrahydro-2H-pyran-4-yl)phenyl)piperidin-1-yl)-5-oxa-2-azaspiro[3.4]octane], in assay [1], the Emax came out at 85% and the EC50 was 0.184 µM. Further, in assay [2], the EC50 came out at 4.82 µM and the Emax was determined as 34%.

Take `COc1ccc(F)cc1C1CCN([C@@H]2COC3(C2)CN(c2ncco2)C3)CC1` [Example 4I, (S)-7-(4-(5-fluoro-2-methoxyphenyl)piperidin-1-yl)-2-(oxazol-2-yl)-5-oxa-2-azaspiro[3.4]octane]: in assay [1], the Emax is 73% and the EC50 came out at 0.019 µM. In assay [2], the EC50 is more than 25 µM and the Emax was 0%.

Turning to `Fc1ccc(OC[C@H]2COCCO2)c(C2CCN([C@@H]3COC4(C3)CN(c3nnco3)C4)CC2)c1` [Example 1C], in assay [1], the Emax amounted to 78% and the 50% effective concentration (EC50) stood at 0.036 µM. Moreover, in assay [2], the EC50 turned out to be 0.503 µM and the Emax is 29%.

For `Fc1ccc(OC2CC3(COC3)C2)c(C2CCN([C@@H]3COC4(C3)CN(c3ncco3)C4)CC2)c1` [Example 4G, (S)-7-(4-(2-((2-oxaspiro[3.3]heptan-6-yl)oxy)-5-fluorophenyl)piperidin-1-yl)-2-(oxazol-2-yl)-5-oxa-2-azaspiro[3.4]octane], in assay [1], the Emax amounted to 68% and the EC50 was 0.017 µM. Further, in assay [2], the EC50 was 13.1 µM and the Emax came out at 58%.

For the compound `c1ccc([C@@H]2CCOC2)c(C2CCN([C@@H]3COC4(C3)CN(c3nnco3)C4)CC2)c1` (single isomer, unassigned) [Example 3A, (S)-2-(1,3,4-oxadiazol-2-yl)-7-(4-(2-((S)-tetrahydrofuran-3-yl)phenyl)piperidin-1-yl)-5-oxa-2-azaspiro[3.4]octane or (S)-2-(1,3,4-oxadiazol-2-yl)-7-(4-(2-((R)-tetrahydrofuran-3-yl)phenyl)piperidin-1-yl)-5-oxa-2-azaspiro[3.4]octane], in assay [1], the “M4 FDSS PA %” value was 91% and the EC50 was determined as 0.083 µM. Moreover, in assay [2], the EC50 was 1.57 µM and the “M2 FDSS PA %” value came to 35%.
